Test results: EP0080271A1, “Indomethacin phenyl ester derivatives, their use, and compositions containing them” (priority 1981, dated 1983)
Read-outs that look alike come from different tables or passages of the source.

Experiments:
rats [1] = experiment: intestinal ulcers and survival after oral administration for 5 days; type: in vivo; settings: group of 12 rats, oral for 5 days, daily dose 28 µM; for ulceration (%): percentage of surviving animals with ulcers
Protocol: Each compound listed in Table 5 was administered orally to a group of 12 rats for 5 days, and the number of intestinal ulcers was determined. The degree of ulceration was calculated as a percentage of number of […] surviving animals with respect to the number of surviving animals.

rats [2] = experiment: ulceration activity: ulcer index 5 hours after oral administration; type: in vivo; settings: sacrificed 5 hours after administration
Protocol: (§1) Secondly, in order to assess ulceration activity, various compounds (listed in Table 2) were administered orally to a group of rats. The animals were sacrificed 5 hours after administration, and the ulcer index was determined. Compounds were also administered orally to a group of rats for 1 week, and the number of intestinal ulcers was determined. The same compounds were administered orally to a group of rats, the ulcer index being determined by observing the stomach 3 hours after administration.

[3] = system: edema induced by carrageenin in rat; experiment: inhibition of edema induced by carrageenin in rat (hind paw volume); type: in vivo; settings: oral 1 hour before carrageenin injection; for inhibition (%): 3 hours after injection; for edema (%): hind paw volume 3 hours after injection
Protocol: Firstly, in order to assess anti-inflammatory activity, the inhibition of edema induced by carrageenin in rat was studied. Various compounds (listed in Table 1) were administered orally to a group of rats just 1 hour before a carrageenin injection, and the hind paw volume was measured 3 hours after injection.

[4] = LD50 by oral administration in mice; settings: mouse, in vivo, mice of the stock ddy
Protocol: LD50 of this compound, determined by means of oral administration in mice of the stock ddy, was 200 mg/kg.

rats [5] = experiment: number of intestinal ulcers after oral administration for 1 week; type: in vivo; settings: oral for 1 week, dose 15 µM
Protocol: as §1

rats [6] = experiment: ulcer index, stomach observed 3 hours after oral administration; type: in vivo; settings: stomach 3 hours after administration, dose 0.056 mM
Protocol: as §1

rats [7] = type: in vivo; settings: group of 10 rats, oral, stomach 24 hours after administration, dose 0.060 mM
Protocol: Each compound listed in Table 6 was administered orally to a group of 10 rats and the ulcer index was determined by observing the stomach 24 hours after administration.

serum esterase = settings: reported in Ceskoslovenska Farmacie 26 (1977) 6277; cited from earlier work
[8] = versus indomethacin plus salicyl salicylate

Structure (SMILES) | number of intestinal ulcers (rats [1]) | ulceration (%) (rats [1]) | ulcer index (mm) (rats [2]; dose 0.030 mM) | inhibition (%) ([3]; dose 0.015 mM) | inhibition (%) ([3]; dose 0.030 mM) | edema (%) ([3]; dose 0.015 mM) | edema (%) ([3]; dose 0.030 mM) | further results
COc1ccc2c(c1)c(CC(=O)OCC(=O)O)c(C)n2C(=O)c1ccc(Cl)cc1 [Acemethacin, reference compound] | 11.0 | 100% |  |  |  |  |  | 
COc1ccc2c(c1)c(CC(=O)Oc1ccccc1C(=O)OCc1ccccc1)c(C)n2C(=O)c1ccc(Cl)cc1 [Example 1, 2-Benzyloxycarbonylphenyll-(p-chlorobenzoyl)-5-methoxy-2-methylindole-3-acetate] |  |  | 0.1 ± 0.1 mm |  |  |  |  | 
CCOC(=O)c1ccccc1OC(=O)Cc1c(C)n(C(=O)c2ccc(Cl)cc2)c2ccc(OC)cc12 [Example 2, 2-Ethoxycarbonylphenyl 1-(p-chlorobenzoyl)-5-methoxy-2-methylindole-3-acetate] |  |  | 0.2 ± 0.1 mm | 31.8% | 34.7% | 53.3 ± 8.7% | 52.9 ± 3.6% | LD50 [4]: 200 mg/kg
COc1ccc2c(c1)c(CC(=O)Oc1ccccc1C(=O)OC(C)(C)C)c(C)n2C(=O)c1ccc(Cl)cc1 [Example 3, 2-t-Butoxycarbonylphenyl 1-(p-chlorobenzoyl)-5-methoxy-2-methlindole-3-acetate] |  |  | 0.2 ± 0.1 mm | 35.8% | 34.7% | 52.0 ± 7.5% | 52.9 ± 3.6% | 
COc1ccc2c(c1)c(CC(=O)Oc1ccccc1C(=O)Oc1ccccc1C(=O)OCc1ccccc1)c(C)n2C(=O)c1ccc(Cl)cc1 [Example 4, 2-(2-Benzyloxycarbonylphenyl)oxycarbonylphenyl 1-(p-chlorobenzoyl)-5-methoxy-2-methylindole-3-acetate] |  |  | 0.4 ± 0.3 mm |  |  |  |  | 
COc1ccc2c(c1)c(CC(=O)Oc1ccccc1C(=O)Oc1ccccc1C(=O)O)c(C)n2C(=O)c1ccc(Cl)cc1 [Example 5, 2-(2-Hydroxycarbonylphenyl)oxycarbonylphenyll-(p-chlorobenzoyl)-5-methoxy-2-methylindole-3-acetate] | 2.4 ± 0.6 | 75% | 0.6 ± 0.3 mm | 42.7% | 48.7% | 46.4 ± 4.8% | 41.4 ± 5.3% | number of ulcers (rats [5]): 0.5 ± 2.0; inhibition (%) (rats [5]; [8]): 98.4%; Ulcer index (rats [6]): 3.7 ± 1.3; inhibition (%) (rats [6]; [8]): 86.0%
COc1ccc2c(c1)c(CC(=O)Oc1ccccc1C(=O)O)c(C)n2C(=O)c1ccc(Cl)cc1 [Indomethacin salicylic ester, 2-hydroxycarbonylphenyll-(p-chlorobenzoyl)-5-methoxy-2-methylindole-3-acetate] | 5.0 ± 0.4 | 100% |  | 49.4% |  | 41.0 ± 3.5% |  | ulcer index (mm) (rats [7]): 7.1 ± 1.6 mm; inhibition (%) (rats [7]; versus indomethacin): 73.2%; hydrolysis by serum esterase (serum esterase): hydrolysis by serum esterase
COc1ccc2c(c1)c(CC(=O)O)c(C)n2C(=O)c1ccc(Cl)cc1 [Indomethacin] |  |  | 5.9 ± 2.5 mm | 32.2% | 53.5% | 54.9 ± 6.5% | 37.7 ± 7.2% | ulcer index (mm) (rats [2]; dose 21.5 mg/kg (0.060 mM)): 57.9 ± 6.6 mm; number of survival animals (rats [1]): 0; ulcer index (mm) (rats [7]): 26.5 ± 6.2 mm
